What was measured:
Pim-1 = Pim-1 (Homo sapiens (Human), UniProt P11309); assay: Pim-1 kinase assay (Pim enzyme assays, Example A); type: biochemical; conditions: 1 mM ATP, BAD peptide substrate; read-out: PIM1 IC50
Procedure: (§1) Pim-1 and Pim-3 kinase assays-20 μL reactions were run in white 384 well polystyrene plates dotted with 0.8 μL compound/DMSO in the assay buffer (50 mM Tris, pH 7.5, 0.01% Tween-20, 5 mM mgCl2, 0.01% BSA, 5 mM DTT), containing 0.05 μM Biotin-labeled BAD peptide substrate (AnaSpec 62269), 1 mM ATP, and 2.5 pM (Pim-1, Invitrogen PV3503) or 1.25 pM (Pim-3, Millipore 14-738) enzyme for 1 h at 25° C. Reactions were stopped by addition of 10 μL STOP Buffer (150 mM Tris, pH=7.5, 150 mM NaCl, 75 mM EDTA, 0.01% Tween-20, 0.3% BSA,) supplemented with Phospho-Bad (Ser112) Antibody (Cell Signaling 9291) diluted 666-fold, and Streptavidin donor beads (PerkinElmer 6760002) along with Protein-A acceptor beads (PerkinElmer 6760137) at 15 μg/mL each. Supplementation of the STOP buffer with beads and stopping the reactions were done under reduced light. Prior to the stopping reactions STOP buffer with beads was preincubated for 1 h in the dark at room temperature. After stopping the reactions, plates were incubated for 1 h in the dark at room temperature before reading on a PHERAstar FS plate reader (BMG Labtech) under reduced light.

Pim-2 = Pim-2 (Homo sapiens (Human), UniProt Q9P1W9); assay: Pim-2 kinase assay (Pim enzyme assays, Example A); type: biochemical; conditions: 1 mM ATP, CREBtide peptide substrate; read-out: PIM2 IC50
Sequence of Pim-2 (Q9P1W9 whole entry): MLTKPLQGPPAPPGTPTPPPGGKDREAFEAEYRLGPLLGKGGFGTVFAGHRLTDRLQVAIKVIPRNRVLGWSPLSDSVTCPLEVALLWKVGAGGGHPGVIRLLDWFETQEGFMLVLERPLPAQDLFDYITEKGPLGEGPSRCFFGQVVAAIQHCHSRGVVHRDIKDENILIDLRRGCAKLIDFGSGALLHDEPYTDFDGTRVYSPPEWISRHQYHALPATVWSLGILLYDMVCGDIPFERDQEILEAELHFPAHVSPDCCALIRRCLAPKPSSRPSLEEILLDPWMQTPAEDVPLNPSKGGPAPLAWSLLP
Procedure: Pim-2 kinase assay-20 μL reactions were run in white 384 well polystyrene plates dotted with 0.8 μL compound/DMSO in the assay buffer (50 mM Tris, pH 7.5, 0.01% Tween-20, 5 mM mgCl2, 0.01% BSA, 5 mM DTT), containing 0.05 μM Fluorescein-labeled CREBtide peptide substrate (Invitrogen PV3508), 1 mM ATP, and 1 nM enzyme (Invitrogen PV3649) for 2 h at 25° C. Reactions were stopped by addition of 10 μL TR-FRET Dilution Buffer (Invitrogen PV3574) with 30 mM EDTA and 1.5 nM LanthaScreen Tb-CREB pSer133 antibody (Invitrogen PV3566). After 30 min. incubation at room temperature, plates were read on a PHERAstar FS plate reader (BMG Labtech).

pBAD in KMS.12.BM cells = assay: Pim pBAD signaling assay in KMS.12.BM cells (Example B); type: cell-based; conditions: Homo sapiens, 2.5 h incubation, pBAD ELISA
Procedure: KG-1A cells are purchased from ATCC (Manassas, Va.) and KMS.12.BM cells are purchased from NIBIO, JCRB cell bank (Tokyo, Japan) and maintained in the culture mediums recommended, RPMI, 10% FBS and IMDM 20% FBS (Mediatech, Manassas, Va.) respectively. To measure the pBAD inhibitory activity of the compounds, both cell lines are plated with the culture medium (1×10^6/well/100 μL for KG1A and 4×10^5 cells/well/in 100 μL for KMS12BM) into 96-well V bottom polypropylene plates (Matrix, Thermo Fisher, USA) and incubated 30 min. at 37° C. to normalize cell signaling from handling. Test compounds are added at an appropriate concentration range and further incubated for 2.5 h for KMS.12.BM cells and 4 h for KG1-A cells. Plates are centrifuged at 2000 RPM for 10 min. and supernatants aspirated. 100 μL lysis buffer with protease inhibitors (Cell Signaling Technologies, Danver, Mass., Sigma, St Louis Mo., EMD, USA) is added to the pellets, mixed well and set on ice for 30 min. Lysates are frozen overnight at −80° C. To measure the pBAD activity, a Cell Signaling ELISA kit (Cell Signaling Path Scan phosphor pBAD ELISA) is utilized. 50 μL of the lysate is tested per the ELISA protocol and the data analysis is performed by software on a SpectrMax5 plate reader (Molecular Devices, Sunnyvale, Calif.). IC50 determination is performed by fitting the curve of percent inhibition versus the log of the inhibitor concentration using the GraphPad Prism 5.0 software.

Pim-3 = Pim-3 (Homo sapiens (Human), UniProt Q86V86); assay: Pim-3 kinase assay (Pim enzyme assays, Example A); type: biochemical; conditions: 1 mM ATP, BAD peptide substrate; read-out: PIM3 IC50
Procedure: as §1

Sequence of Pim-1 (P11309 whole entry): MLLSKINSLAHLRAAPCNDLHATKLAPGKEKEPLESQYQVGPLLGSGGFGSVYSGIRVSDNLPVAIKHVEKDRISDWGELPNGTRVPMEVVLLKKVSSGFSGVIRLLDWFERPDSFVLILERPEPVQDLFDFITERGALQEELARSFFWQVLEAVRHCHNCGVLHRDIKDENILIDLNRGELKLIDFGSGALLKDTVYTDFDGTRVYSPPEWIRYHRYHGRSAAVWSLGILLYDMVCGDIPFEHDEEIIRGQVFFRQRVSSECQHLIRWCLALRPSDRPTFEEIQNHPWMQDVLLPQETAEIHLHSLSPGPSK

Structure (SMILES) | IC50 (Pim-1) [nM] | IC50 (Pim-2) [nM] | IC50 (pBAD in KMS.12.BM cells) [nM] | IC50 (Pim-3) [nM]
C[C@H]1CN(c2ccncc2NC(=O)c2ccc3ccc(N4CCC(C#N)CC4)cc3n2)C[C@@H](N)[C@@H]1O [Example 16, N-{4-[(3R,4R,5S)-3-Amino-4-hydroxy-5-methylpiperidin-1-yl]pyridin-3-yl}-7-(4-cyanopiperidin-1-yl)quinoline-2-carboxamide] | ≤ 10 | ≤ 100 | ≤ 50 | ≤ 10
CCn1cc(-c2cnc3ccc(C(=O)Nc4cnccc4N4C[C@@H](N)[C@H](O)[C@@H](C5CC5)C4)nc3c2)cn1 [Example 38, N-{4-[(3R,4R,5S)-3-Amino-5-cyclopropyl-4-hydroxypiperidin-1-yl]pyridin-3-yl}-7-(1-ethyl-1H-pyrazol-4-yl)-1,5-naphthyridine-2-carboxamide] | ≤ 10 | ≤ 100 | ≤ 50 | ≤ 10
N#Cc1ccccc1-c1cnc2ccc(C(=O)Nc3cnccc3N3C[C@@H](N)C[C@@H](C(F)(F)F)C3)nc2c1 [Example 51, N-{4-[(3S,5R)-3-Amino-5-(trifluoromethyl)piperidin-1-yl]pyridin-3-yl}-7-(2-cyanophenyl)-1,5-naphthyridine-2-carboxamide] | ≤ 10 | ≤ 100 | ≤ 50 | ≤ 10
C[C@H]1CN(c2ccncc2NC(=O)c2ccc3ccc(N4CCN(C)CC4)cc3n2)C[C@@H](N)[C@@H]1O [Example 18, N-{4-[(3R,4R,5S)-3-Amino-4-hydroxy-5-methylpiperidin-1-yl]pyridin-3-yl}-7-(4-methylpiperazin-1-yl)quinoline-2-carboxamide] | ≤ 10 | 100 to 1000 | 50 to 250 | ≤ 10
C[C@@H]1C[C@H](N)CN(c2ccncc2NC(=O)c2ccc3ccc(N4CCC(c5ccncc5)CC4)cc3n2)C1 [Example 21, N-{4-[(3S,5R)-3-Amino-5-methylpiperidin-1-yl]pyridin-3-yl}-7-(4-pyridin-4-ylpiperidin-1-yl)quinoline-2-carboxamide] | ≤ 10 | 100 to 1000 | 50 to 250 | ≤ 10
COc1cc(F)c(-c2cnc3ccc(C(=O)Nc4cnccc4N4C[C@@H](N)[C@H](O)[C@@H](C5CC5)C4)nc3c2)c(F)c1 [Example 35, N-{4-[(3R,4R,5S)-3-Amino-5-cyclopropyl-4-hydroxypiperidin-1-yl]pyridin-3-yl}-7-(2,6-difluoro-4-methoxyphenyl)-1,5-naphthyridine-2-carboxamide] | ≤ 10 | ≤ 100 | ≤ 50 | ≤ 10
C[C@@H]1C[C@H](N)CN(c2ccncc2NC(=O)c2ccc3ccc(N4CCC5(CCOCC5)CC4)cc3n2)C1 [Example 15, N-{4-[(3S,5R)-3-Amino-5-methylpiperidin-1-yl]pyridin-3-yl}-7-(3-oxa-9-azaspiro[5.5]undec-9-yl)quinoline-2-carboxamide] | ≤ 10 | 100 to 1000 | 50 to 250 | ≤ 10
C[C@@H]1C[C@H](N)CN(c2ccncc2NC(=O)c2ccc3ccc(N4CCN(C)CC4)cc3n2)C1 [Example 19, N-{4-[(3S,5R)-3-Amino-5-methylpiperidin-1-yl]pyridin-3-yl}-7-(4-methylpiperazin-1-yl)quinoline-2-carboxamide] | ≤ 10 | 100 to 1000 | 250 to 2000 | ≤ 10
C[C@H]1CN(c2ccncc2NC(=O)c2ccc3ccc(N4CCCC4)cc3n2)C[C@@H](N)[C@@H]1O [Example 30, N-{4-[(3R,4R,5S)-3-Amino-4-hydroxy-5-methylpiperidin-1-yl]pyridin-3-yl}-7-pyrrolidin-1-ylquinoline-2-carboxamide] | ≤ 10 | ≤ 100 | 50 to 250 | ≤ 10
COc1ccc(-c2ccc3ccc(C(=O)Nc4cnccc4N4C[C@@H](N)[C@H](O)[C@@H](C)C4)nc3c2)cn1 [Example 45, N-{4-[(3R,4R,5S)-3-Amino-4-hydroxy-5-methylpiperidin-1-yl]pyridin-3-yl}-7-(6-methoxypyridin-3-yl)quinoline-2-carboxamide] | ≤ 10 | ≤ 100 | ≤ 50 | ≤ 10
CCn1cc(-c2cnc3ccc(C(=O)Nc4cnccc4N4C[C@H](C)C[C@H](N)C4)nc3c2)cn1 [Example 5, N-{4-[(3S,5R)-3-Amino-5-methylpiperidin-1-yl]pyridin-3-yl}-7-(1-ethyl-1H-pyrazol-4-yl)-1,5-naphthyridine-2-carboxamide] | ≤ 10 | 100 to 1000 | ≤ 50 | ≤ 10
C[C@H]1CN(c2ccncc2NC(=O)c2ccc3ccc(-c4ccc(OC5CCOCC5)nc4)cc3n2)C[C@@H](N)[C@@H]1O [Example 52, N-{4-[(3R,4R,5S)-3-Amino-4-hydroxy-5-methylpiperidin-1-yl]pyridin-3-yl}-7-[6-(tetrahydro-2H-pyran-4-yloxy)pyridin-3-yl]quinoline-2-carboxamide] | ≤ 10 | ≤ 100 | 50 to 250 | ≤ 10
COC1CCN(c2ccc3ccc(C(=O)Nc4cnccc4N4C[C@H](C)C[C@H](N)C4)nc3c2)CC1 [Example 25, N-{4-[(3S,5R)-3-Amino-5-methylpiperidin-1-yl]pyridin-3-yl}-7-(4-methoxypiperidin-1-yl)quinoline-2-carboxamide] | ≤ 10 | ≤ 100 | ≤ 50 | ≤ 10
N[C@@H]1CN(c2ccncc2NC(=O)c2ccc3ncc(-c4ccc(N5CCOCC5)nc4)cc3n2)C[C@H](C2CC2)[C@H]1O [Example 37, N-{4-[(3R,4R,5S)-3-Amino-5-cyclopropyl-4-hydroxypiperidin-1-yl]pyridin-3-yl}-7-(6-morpholin-4-ylpyridin-3-yl)-1,5-naphthyridine-2-carboxamide] | ≤ 10 | ≤ 100 | ≤ 50 | ≤ 10
C[C@@H]1C[C@H](N)CN(c2ccncc2NC(=O)c2ccc3ccc(N4CCC4)cc3n2)C1 [Example 34, N-{4-[(3S,5R)-3-Amino-5-methylpiperidin-1-yl]pyridin-3-yl}-7-azetidin-1-ylquinoline-2-carboxamide] | ≤ 10 | ≤ 100 | 50 to 250 | ≤ 10
C[C@@H]1C[C@H](N)CN(c2ccncc2NC(=O)c2ccc3ccc(-c4ccccc4C#N)cc3n2)C1 [Example 49, N-{4-[(3S,5R)-3-Amino-5-methylpiperidin-1-yl]pyridin-3-yl}-7-(2-cyanophenyl)quinoline-2-carboxamide] | ≤ 10 | ≤ 100 | ≤ 50 | ≤ 10
C[C@@H]1C[C@H](N)CN(c2ccncc2NC(=O)c2ccc3ncc(-c4c(F)cccc4F)cc3n2)C1 [Example 1, N-{4-[(3S,5R)-3-Amino-5-methylpiperidin-1-yl]pyridin-3-yl}-7-(2,6-difluorophenyl)-1,5-naphthyridine-2-carboxamide] | ≤ 10 | ≤ 100 | ≤ 50 | ≤ 10
N[C@@H]1CN(c2ccncc2NC(=O)c2ccc3ncc(N4CCC5(CCCO5)CC4)cc3n2)C[C@H](C2CC2)[C@H]1O [Example 42, N-{4-[(3R,4R,5S)-3-Amino-5-cyclopropyl-4-hydroxypiperidin-1-yl]pyridin-3-yl}-7-(1-oxa-8-azaspiro[4.5]dec-8-yl)-1,5-naphthyridine-2-carboxamide] | ≤ 10 | 100 to 1000 | 50 to 250 | ≤ 10
